Laboratory results from patent publication US20240299554A1, “PRODRUGS WITH 1-(DISULFANYL)ALKYLOXY-CARBONYL UNITS” (PHARMACYTICS B.V., priority 2021, published 2024).

How the values were obtained:
[1] = Oral bioavailability of conjugates in female Beagle dogs (AUC of parent drug); assay type: in vivo; details: for Δ AUC (increase of AUC of parent drug derived from conjugate compared to parent drug as such): female Beagle dogs, single oral dose 7.5 or 15 μmol/kg by gavage, 24 h sampling, Table 1a; for generation of parent drug after oral administration: oral administration to beagle dogs
Procedure: Relative and absolute bioavailability may be determined in different animal models and according to different protocols. The following protocol is typical for determining bioavailability in female Beagle dogs and was used in the present invention. The animals were deprived from food over a time period of 8 h prior to administration of the compounds according to the present invention and over a time period of 2 h after administration of the compounds according to the present invention. Water was supplied without limitation. On the study day, the animals received the compounds according to the present invention, at a single dose of 7.5 or 15 μmol/kg, by oral gavage, formulated in mixtures of propylene glycol, ethanol and 0.9% NaCl+5% mannitol in water. Blood samples were collected from the jugular vein on the following time points: 0.25, 0.5, 1, 2, 4, 8 and 24 hours after dosing of the compounds according to the present invention. […] Pharmacokinetic parameters were calculated from concentration versus time data using non-compartmental pharmacokinetic methods using Phoenix pharmacokinetic software. Data are compared to the parent drugs to establish improvement of its oral bioavailability by the compounds according to the present invention.

[2] = In vitro treatment of conjugates with glutathione, release of parent drug followed by LC-MS at 254 nm; assay type: in vitro ADME; details: for fate of glutathione adduct formed during glutathione treatment: adduct formed in situ from the conjugate; for formation of parent drug on in vitro treatment with glutathione: glutathione 5 eq., phosphate buffer pH=7.6, 37° C. (for 102)
Description: (§1) FIGS. 1A and 1B are graphs showing the release of the drug Cinacalcet after an in vitro treatment of Cinacalcet conjugate 102 (not according to the invention) with glutathione. […] FIG. 1B represent the concentration of Cinacalcet conjugate 102 and Cinacalcet versus time. The presence of the compounds was followed at 254 nm by LC-MS.
as §1, with “3A” for “1A”, “3B” for “1B”, “60 (according” for “102 (not according”, “60” for “102”
The results are shown in FIGS. 1A and B. In FIG. 1A is shown the disappearance of conjugate 102 over time after treatment with glutathione, the formation of Cinacalcet and the appearance and partial disappearance of an intermediate (HS-Et-Cinacalcet) and a glutathione adduct (GSS—Et-Cinacalcet)—see below.

| SMILES | Δ AUC (increase of AUC of parent drug derived from conjugate compared to parent drug as such) [1] | formation of parent drug on in vitro treatment with glutathione [2] | generation of parent drug after oral administration [1] | also measured |
| --- | --- | --- | --- | --- |
| CCCN(COCCSSCOC(=O)N(CCCc1cccc(C(F)(F)F)c1)[C@H](C)c1cccc2ccccc12)C(=O)O[C@@H]1O[C@H](CF)[C@@H](O)[C@H](O)[C@H]1O [Compound 92b] | +++ (+++ denotes a >4-fold increase of the AUC compared to the parent drug) |  |  |  |
| C[C@H](c1cccc2ccccc12)N(CCCc1cccc(C(F)(F)F)c1)C(=O)OCSSC[C@H](NC(=O)CC[C@H](N)C(=O)O)C(=O)NCC(=O)O [GSS-Me-Cinacalcet] |  |  |  | fate of glutathione adduct formed during glutathione treatment [2]: completely converted into Cinacalcet within one hour |
| CCCN(COCCSSCOC(=O)N(CCCc1cccc(C(F)(F)F)c1)[C@H](C)c1cccc2ccccc12)C(=O)O[C@@H]1O[C@H](CO)[C@@H](O)[C@H](O)[C@H]1O [Compound 92a] | +++ (+++ denotes a >4-fold increase of the AUC compared to the parent drug) |  |  |  |
| CN(CC[C@H](Oc1cccc2ccccc12)c1cccs1)C(=O)OCSSC[C@H](NC(=O)CC[C@H](N)C(=O)O)C(=O)NCC(=O)O [GSS-Me-Duloxetine] |  |  |  | fate of glutathione adduct formed during glutathione treatment [2]: completely converted into Duloxetine within one hour |
| C[C@H](c1cccc2ccccc12)N(CCCc1cccc(C(F)(F)F)c1)C(=O)OCCSSC[C@H](NC(=O)CC[C@H](N)C(=O)O)C(=O)NCC(=O)O [GSS-Et-Cinacalcet] |  |  |  | fate of glutathione adduct formed during glutathione treatment [2]: somewhat more stable than the mercaptoethyl carbamate |
| CN(CC[C@@H](Oc1cccc2ccccc12)c1cccs1)C(=O)OCCSSCCO[C@@H]1O[C@H](CO)[C@@H](O)[C@H](O)[C@H]1O [Compound 103] |  | very slow and incomplete formation of duloxetine | did not produce any detectable amount of Duloxetine | conversion of pro-drug into parent drug within 8 hours ([2]; glutathione treatment): less than half |
| CCCN(COCCSSCOC(=O)N(CCCc1cccc(C(F)(F)F)c1)[C@H](C)c1cccc2ccccc12)C(=O)O[C@@H]1O[C@H](CO)[C@H](O)[C@H](O)[C@H]1O [Compound 93a] | +++ (+++ denotes a >4-fold increase of the AUC compared to the parent drug) |  |  |  |
| C[C@H](c1cccc2ccccc12)N(CCCc1cccc(C(F)(F)F)c1)C(=O)OCSSCCNC(=O)O[C@@H]1O[C@H](CO)[C@@H](O)[C@H](O)[C@H]1O [Compound 90] | + (+ denotes a 1.1 to 2-fold increase of the AUC compared to parent drug) |  |  |  |
| C[C@H](c1cccc2ccccc12)N(CCCc1cccc(C(F)(F)F)c1)C(=O)OCCSSCCO[C@@H]1O[C@H](CO)[C@@H](O)[C@H](O)[C@H]1O [Compound 102] |  | very slow and incomplete formation of Cinacalcet | did not produce any detectable amount of the drug Cinacalcet | conversion of pro-drug into parent drug within 8 hours ([2]; glutathione treatment): far from being completely converted into Cinacalcet; conversion of pro-drug into parent drug in 23 hours ([2]; glutathione treatment, 23 hours): less than half |
| CN(CC[C@@H](Oc1cccc2ccccc12)c1cccs1)C(=O)OCSSCCO[C@@H]1O[C@H](CO)[C@H](O)[C@H](O)[C@H]1O [Compound 61] | ++ (++ denotes a 2 to 4-fold increase of the AUC compared to the parent drug) | very fast and complete formation of Duloxetine | readily resulted in the generation of significant amounts of duloxetine |  |
| C[C@H](c1cccc2ccccc12)N(CCCc1cccc(C(F)(F)F)c1)C(=O)OCSSCCO[C@@H]1O[C@H](CO)[C@@H](O)[C@H](O)[C@H]1O [Compound 60] | ++ (++ denotes a 2 to 4-fold increase of the AUC compared to the parent drug) | very fast and complete formation of Cinacalcet | readily resulted in the generation of significant amounts of cinacalcet |  |
